Measurements: patent US20180104220A1, “IMIDAZOLE COMPOUND” (MEDSHINE DISCOVERY INC., priority 2015, published 2018)
Like-named read-outs stand apart in the source and are kept apart here.

Target: T1, thromboxane synthetase (Rattus norvegicus, UniProt P49430)
T1 construct: Whole blood was collected from the heart of male SD rat after isoflurane anesthesia; from tissue; host or cells: whole blood of male Sprague-Dawley rats
T1 sequence (P49430 1-533): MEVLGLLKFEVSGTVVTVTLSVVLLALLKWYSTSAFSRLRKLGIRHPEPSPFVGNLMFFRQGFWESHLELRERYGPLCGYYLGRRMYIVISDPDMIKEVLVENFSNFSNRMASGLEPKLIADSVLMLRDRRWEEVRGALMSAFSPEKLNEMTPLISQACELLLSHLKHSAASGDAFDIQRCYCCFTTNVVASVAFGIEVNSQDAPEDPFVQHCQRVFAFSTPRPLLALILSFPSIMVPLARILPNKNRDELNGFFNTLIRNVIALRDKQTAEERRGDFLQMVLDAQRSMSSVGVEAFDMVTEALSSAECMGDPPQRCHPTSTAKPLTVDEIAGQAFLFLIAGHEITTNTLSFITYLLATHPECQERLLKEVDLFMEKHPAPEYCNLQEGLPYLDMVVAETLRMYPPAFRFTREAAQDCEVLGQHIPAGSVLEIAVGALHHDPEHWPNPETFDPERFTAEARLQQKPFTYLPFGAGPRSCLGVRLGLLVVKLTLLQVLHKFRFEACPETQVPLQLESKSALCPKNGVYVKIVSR
Test: Release of TXB2 in the in-vitro coagulation process of rats' whole blood
Type: cell-based
Settings: male SD rat whole blood, 37° C. 30 mins, TXB2 by LC-MS/MS, read-out: IC50 for the release level of TXB2 in the in-vitro coagulation of rats' whole blood (thromboxane synthetase)
Excerpt: Study for the Release of TXB2 in the in-vitro Coagulation Process of Rats' Whole Blood
In the in-vitro coagulation process, thromboxane A2 (TXA2) pathway was activated, resulting in the formation of large amounts of TXA2, which were rapidly metabolized to its stable form thromboxane B2 (TXB2).
The key enzyme of this pathway was thromboxane synthase. The generation of TXA2 could be inhibited by blocking this enzyme with specific inhibitors (tested compounds), and the level of TXB2 was thus decreased.
The activity of tested compound was measured with the IC50 of inhibiting the formation of TBX2.
Male Sprague-Dawley (SD) rats, purchased from Shanghai SLAC Laboratory Animal Co., Ltd.
0.9% normal saline, […] NaOH solution (vehicle), 100 uM thromboxane synthetase inhibitor solution, isoflurane
1. Tested compound was dissolved by normal saline and prepared to required concentration by gradient dilution. 167 uL of prepared solution was added to centrifuge tube.
2. Whole blood was collected from the heart of male SD rat after isoflurane anesthesia, added to centrifuge tube (0.5 mL), shaken up and incubated under 37° C. water bath for 30 mins until complete coagulation.
3. Centrifuge tube was taken out and centrifuged for 5 mins (6000 g, 4° C.) to get serum.
4. Assay the content of TXB2 by LC-MS/MS-AG (API 4000).
By comparison with the vehicle group, TXB2 contents of each sample were normalized to Control % by the formule:
Control %=(TBX2 level in test tube−TBX2 level in negative tube)/TBX2 level in control tube×100
Note: Test tube: solution of tested compound with series concentration
Negative tube: solution of thromboxane synthetase inhibitor at high concentration (100 uM)
Using GraphPad Prism (concentration as X-axis and Control % as Y-axis) to fit the data and calculate IC50.

SMILES	IC50 (class symbols) [nM]	IC50 (numeric value) [nM]
Oc1cc(Cc2ccc(Cn3ccnc3)cc2)on1 [Compound 25, 5-(4-(2-(1H-imidazol-1-yl)methyl)benzyl)isoxazol-3-ol]	> 250	–
Oc1cc([C@H]2CC[C@@H](Cn3ccnc3)CC2)on1 [Compound 35, 5-(cis-4-((1H-imidazol-1-yl)methyl)cyclohexyl)isoxazol-3-ol]	50 to 100	–
O=C(O)/C=C/c1ccc(Cn2ccnc2)cc1 [Ozagrel, reference compound]	–	120
Oc1cc(-c2ccc(Cn3ccnc3)nc2)on1 [Compound 14, 5-(6-((1H-imidazol-1-yl)methyl)pyridin-3-yl)isoxazol-3-ol]	> 250	–
Oc1cc(-c2ccc(Cn3ccnc3)cc2)[nH]n1 [Compound 31, 5-(4-((1H-imidazol-1-yl)methyl)phenyl)-1H-pyrazol-3-ol]	> 250	–
Oc1cc(-c2ccc(Cn3ccnc3)c(F)c2)on1 [Compound 2, 5-(4-((1H-imidazol-1-yl)methyl)-3-fluorophenyl)isoxazol-3-ol]	100 to 250	–
Oc1cc(CCCCCn2ccnc2)on1 [Compound 33, 5-(5-(1H-imidazol-1-yl)pentyl)isoxazol-3-ol]	> 250	–
Oc1cc(Cc2cccc(Cn3ccnc3)c2)on1 [Compound 26, 5-(3-((1H-imidazol-1-yl)methyl)benzyl)isoxazol-3-ol]	> 250	–
Oc1cc(-c2c(F)cc(Cn3ccnc3)cc2F)on1 [Compound 5, 5-(4-((1H-imidazol-1-yl)methyl)-2,6-difluorophenyl)isoxazol-3-ol]	50 to 100	–
Cc1cc(Cn2ccnc2)ccc1-c1cc(O)no1 [Compound 8, 5-(4-((1H-imidazol-1-yl)methyl)-2-methylphenyl)isoxazol-3-ol]	50 to 100	–
C[C@H](c1ccc(-c2cc(O)no2)cc1)n1ccnc1 [Compound 21, (R)-5-(4-(1-(1H-imidazol-1-yl)ethyl)phenyl)isoxazol-3-ol]	≤ 25	–
COc1cc(-c2cc(O)no2)ccc1Cn1ccnc1 [Compound 10, 5-(4-((1H-imidazol-1-yl)methyl)-3-methoxyphenyl)isoxazol-3-ol]	50 to 100	–
Oc1cc(-c2ccc(Cn3ccnc3)c(C3CC3)c2)on1 [Compound 15, 5-(4-((1H-imidazol-1-yl)methyl)-3-cyclopropylphenyl)isoxazol-3-ol]	50 to 100	–
Oc1cc(CCCCn2ccnc2)on1 [Compound 32, 5-(4-(1H-imidazol-1-yl)butyl)isoxazol-3-ol]	> 250	–
Oc1cc(-c2cc(F)c(Cn3ccnc3)c(Cl)c2)on1 [Compound 6, 5-(4-((1H-imidazol-1-yl)methyl)-3-chloro-5-fluorophenyl)-isoxazol-3-ol]	25 to 50	–
Oc1cc(-c2ccc(Cn3ccnc3)cc2F)on1 [Compound 3, 5-(4-((1H-imidazol-1-yl)methyl)-2-fluorophenyl)isoxazol-3-ol]	50 to 100	–
Cc1cc(-c2cc(O)no2)ccc1Cn1ccnc1 [Compound 12, 5-(4-((1H-imidazol-1-yl)methyl)-3-methylphenyl)isoxazol-3-ol]	25 to 50	–
Oc1cc(-c2ccc(Cn3ccnc3)cc2)on1 [Compound 1, 5-(4-((1H-imidazol-1-yl)methyl)phenyl)isoxazol-3-ol]	≤ 25	–

SMILES	IC50 (class symbols) [nM]	IC50 (numeric value) [nM]
Oc1cc(-c2cccc(Cn3ccnc3)c2)on1 [Compound 24, 5-(3-((1H-imidazol-1-yl)methyl)phenyl)isoxazol-3-ol]	> 250	–
Oc1c(F)ccc(-c2ccc(Cn3ccnc3)cc2)c1F [Compound 28, 4′-((1H-imidazol-1-yl)methyl)-2,4-difluoro-[1,1′-biphenyl]-3-ol]	100 to 250	–
Cc1c(O)noc1-c1ccc(Cn2ccnc2)cc1 [Compound 30, 5-(4-((1H-imidazol-1-yl)methyl)phenyl)-4-methylisoxazol-3-ol]	> 250	–
Oc1nccc(-c2ccc(Cn3ccnc3)cc2)c1F [Compound 27, 4-(4-((1H-imidazol-1-yl)methyl)phenyl)-3-fluoropyridin-2-ol]	> 250	–
Oc1cc(-c2ccc(Cn3ccnc3)c(Br)c2)on1 [Compound 13, 5-(4-((1H-imidazol-1-yl)methyl)-3-bromophenyl)isoxazol-3-ol]	25 to 50	–
CCc1cc(-c2cc(O)no2)ccc1Cn1ccnc1 [Compound 16, 5-(4-((1H-imidazol-1-yl)methyl)-3-ethylphenyl)isoxazol-3-ol]	≤ 25	–
Oc1nccc(C2=CCC(Cn3ccnc3)CC2)c1F (stereo not drawn) [Compound 36, 4-(4-((1H-imidazol-1-yl)methyl)cyclohex-1-en-1-yl)-3-fluoropyridin-2-ol]	100 to 250	–
Oc1cc(-c2ccc(Cn3ccnc3)cc2)sn1 [Compound 29, 5-(4-((1H-imidazol-1-yl)methyl)phenyl)isothiazol-3-ol]	> 250	–
COc1cc(Cn2ccnc2)ccc1-c1cc(O)no1 [Compound 9, 5-(4-((1H-imidazol-1-yl)methyl)-2-methoxyphenyl)isoxazol-3-ol]	≤ 25	–
Oc1cc(-c2ccc(Cn3ccnc3)c(Cl)c2)on1 [Compound 11, 5-(4-((1H-imidazol-1-yl)methyl)-3-chlorophenyl)isoxazol-3-ol]	25 to 50	–
Oc1cc(-c2cc(F)c(Cn3ccnc3)cc2F)on1 [Compound 4, 5-(4-((1H-imidazol-1-yl)methyl)-2,5-difluorophenyl)isoxazol-3-ol]	25 to 50	–
Oc1cc([C@H]2CC[C@H](Cn3ccnc3)CC2)on1 [Compound 34, 5-(trans-4-((1H-imidazol-1-yl)methyl)cyclohexyl)isoxazol-3-ol]	25 to 50	–
C[C@@H](c1ccc(-c2cc(O)no2)cc1)n1ccnc1 [Compound 22, (S)-5-(4-(1-(1H-imidazol-1-yl)ethyl)phenyl)isoxazol-3-ol]	50 to 100	–
CC(C)(c1ccc(-c2cc(O)no2)cc1)n1ccnc1 [Compound 23, 5-(4-(2-(1H-imidazol-1-yl)propan-2-yl)phenyl)isoxazol-3-ol]	100 to 250	–
Oc1cc(-c2cc(F)c(Cn3ccnc3)c(F)c2)on1 [Compound 17, 5-(4-((1H-imidazol-1-yl)methyl)-3,5-difluorophenyl)isoxazol-3-ol]	≤ 25	–
CC(c1ccc(-c2cc(O)no2)cc1)n1ccnc1 (stereo not drawn) [Compound 20, 5-(4-(1-(1H-imidazol-1-yl)ethyl)phenyl)isoxazol-3-ol]	≤ 25	–
Cc1cc(-c2cc(O)no2)cc(C)c1Cn1ccnc1 [Compound 18, 5-(4-((1H-imidazol-1-yl)methyl)-3,5-dimethylphenyl)isoxazol-3-ol]	> 250	–
Oc1cc(-c2ccc(Cn3ccnc3)cc2Cl)on1 [Compound 7, 5-(4-((1H-imidazol-1-yl)methyl)-2-chlorophenyl)isoxazol-3-ol]	50 to 100	–
